Measured values: patent publication US9073876B2, “Flap modulators” (JANSSEN PHARMACEUTICA NV, priority 2013, dated 2015)

What was measured:
[1] = target: human FLAP (Homo sapiens (Human), UniProt P20292); assay: FLAP binding assay (HTRF); details: human FLAP-containing membranes, HTRF format; average of two assay plates, duplicates; read-out: FLAP Binding wild type HTRF Ki
Method: (§1) The ability of the compounds of the present invention to treat a FLAP-mediated disease and/or disorder, or associated symptoms or complications thereof, was determined using the following procedures. Binding assay data represent the average value obtained from two different assay plates, with samples run in duplicate on each plate. Human whole blood assay data represent a single replicate on an assay plate using whole blood from at least one healthy donor.
Data are expressed as a HTRF ratio.

[2] = system: leukotriene pathway in human whole blood (LTB4 levels); assay: Human whole blood assay (LTB4); format: cell-based; details: human whole blood diluted 1:1 in RPMI, stimulated with calcium ionophore A23187; single replicate
Method: as §1
An in vitro cellular assay was performed using human whole blood collected in heparin-containing tubes, which was used to test the ability of compounds to modulate the leukotriene pathway in human whole blood. The blood was diluted 1:1 in RPMI medium, pre-incubated for 15 min at 37° Celsius with test compounds at various concentrations, and then stimulated with calcium ionophore, A23187 (7 μg/mL), for 30 min at 37° Celsius. The samples were then centrifuged and plasma was removed. The plasma was diluted in assay buffer and LTB4 levels were measured using a commercial kit (Enzo Life Sciences). The concentration of each compound that was required for half-maximal inhibition (modulation) of recombinant enzyme activity (IC50) was calculated by a 4-parameter equation using the program GraphPad Prism (GraphPad software).

human FLAP, sequence (P20292 whole entry): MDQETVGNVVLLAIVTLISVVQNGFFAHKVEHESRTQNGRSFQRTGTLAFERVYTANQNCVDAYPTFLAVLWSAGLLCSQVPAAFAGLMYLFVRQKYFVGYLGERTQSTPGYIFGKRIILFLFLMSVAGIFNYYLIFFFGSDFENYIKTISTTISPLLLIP

| Compound | Ki [1] | IC50 [2] |
| --- | --- | --- |
| 6-cyclobutyl-2-fluoro-3-(5H-pyrrolo[2,3-b]pyrazin-2-yl)phenol [Example 176] | 100 nM | 892 nM |
| Nc1cnc(-c2ccc(C3CCC3)c(OCC(O)Cn3cnccc3=O)c2F)cn1 (racemic) [Example 52, racemic 3-(3-(3-(5-Aminopyrazin-2-yl)-6-cyclobutyl-2-fluorophenoxy)-2-hydroxypropyl)pyrimidin-4(3H)-one] | 366 nM | 680 nM |
| Nc1cnc(-c2ccc(C3CCC3)c(OCC(O)Cn3ccncc3=O)c2F)cn1 (racemic) [Example 54, racemic 1-(3-(3-(5-Aminopyrazin-2-yl)-6-cyclobutyl-2-fluorophenoxy)-2-hydroxypropyl)pyrazin-2(1H)-one] | 296 nM | 909 nM |
| Nc1cnc(-c2ccc(C3CCC3)c(OCC(O)CNc3cncnc3)c2F)cn1 (racemic) [Example 55, racemic 1-(3-(5-Aminopyrazin-2-yl)-6-cyclobutyl-2-fluorophenoxy)-3-(pyrimidin-5-ylamino)propan-2-ol] | 152 nM | 555 nM |
| Nc1cnc(-c2ccc(C3CCC3)c(OCC(O)Cn3ccnc3)c2F)cn1 (racemic) [Example 61, racemic 1-(3-(5-Aminopyrazin-2-yl)-6-cyclobutyl-2-fluorophenoxy)-3-(1H-imidazol-1-yl)propan-2-ol] | 262 nM | 697 nM |
| Nc1cnc(-c2ccc(C3CCC3)c(OCC(O)Cn3cncn3)c2F)cn1 (racemic) [Example 62, racemic 1-(3-(5-Aminopyrazin-2-yl)-6-cyclobutyl-2-fluorophenoxy)-3-(1H-1,2,4-triazol-1-yl)propan-2-ol] | 315 nM | 832 nM |
| Nc1cnc(-c2ccc(C3CCC3)c(OCC(O)Cn3ccnn3)c2F)cn1 (racemic) [Example 63, racemic 1-(3-(5-Aminopyrazin-2-yl)-6-cyclobutyl-2-fluorophenoxy)-3-(1H-1,2,3-triazol-1-yl)propan-2-ol] | 120 nM | 212 nM |
| Nc1cnc(-c2ccc(C3CCC3)c(OCC(O)Cn3nccn3)c2F)cn1 (racemic) [Example 64, racemic 1-(3-(5-Aminopyrazin-2-yl)-6-cyclobutyl-2-fluorophenoxy)-3-(2H-1,2,3-triazol-2-yl)propan-2-ol] | 86 nM | 275 nM |
| Nc1cnc(-c2ccc(C3CCC3)c(OCC(O)Cn3nncc3N)c2F)cn1 (racemic) [Example 66, racemic 1-(5-Amino-1H-1,2,3-triazol-1-yl)-3-(3-(5-aminopyrazin-2-yl)-6-cyclobutyl-2-fluorophenoxy)propan-2-ol] | 422 nM | 753 nM |
| Nc1cnc(-c2ccc(C3CCC3)c(OCC(O)CN3CCS(=O)(=O)CC3)c2F)cn1 (racemic) [Example 256, 4-(3-(3-(5-Aminopyrazin-2-yl)-6-cyclobutyl-2-fluorophenoxy)-2-hydroxypropyl)thiomorpholine 1,1-dioxide] | 434 nM | 718 nM |
| Nc1cnc(-c2ccc(C3CCC3)c(OCC(O)Cn3c(=O)[nH]c4ccccc43)c2F)cn1 (racemic) [Example 311, racemic 1-{3-[3-(5-Aminopyrazin-2-yl)-6-cyclobutyl-2-fluorophenoxy]-2-hydroxypropyl}-1,3-dihydro-2H-benzimidazol-2-one] | 8.1 nM | 110 nM |
| COc1c(C2CCC2)ccc(-c2cnc(N)cn2)c1F [A, 5-(4-Cyclobutyl-2-fluoro-3-methoxyphenyl)pyrazin-2-amine] | 64 nM | 531 nM |
| Nc1cnc(-c2ccc(C3CCC3)c(O)c2F)cn1 [B, 3-(5-Aminopyrazin-2-yl)-6-cyclobutyl-2-fluorophenol] | 354 nM | 960 nM |
| Nc1cnc(-c2ccc(C3CCC3)c(OCc3ccc(C(F)(F)F)cc3)c2F)cn1 [Example 1, 5-(4-Cyclobutyl-2-fluoro-3-{[4-(trifluoromethyl)benzyl]oxy}phenyl)-pyrazin-2-amine] | 286 nM | 588 nM |
| Nc1cnc(-c2ccc(C3CCC3)c(OCc3cccc(C(F)(F)F)c3)c2F)cn1 [Example 2, 5-(4-Cyclobutyl-2-fluoro-3-{[3-(trifluoromethyl)benzyl]oxy}phenyl)-pyrazin-2-amine] | 158 nM | 526 nM |
| Nc1cnc(-c2ccc(C3CCC3)c(OCc3ccccc3C(F)(F)F)c2F)cn1 [Example 3, 5-(4-Cyclobutyl-2-fluoro-3-{[2-(trifluoromethyl)benzyl]oxy}phenyl)-pyrazin-2-amine] | 250 nM | 271 nM |
| CS(=O)(=O)c1ccc(COc2c(C3CCC3)ccc(-c3cnc(N)cn3)c2F)cc1 [Example 7, 5-(4-Cyclobutyl-2-fluoro-3-{[4-(methylsulfonyl)benzyl]oxy}phenyl)-pyrazin-2-amine] | 7 nM | 1400 nM |
| Nc1cnc(-c2ccc(C3CCC3)c(OCc3ccc(-c4nnn[nH]4)cc3)c2F)cn1 [Example 20, 5-(4-Cyclobutyl-2-fluoro-3-{[4-(1H-tetrazol-5-yl)benzyl]oxy}phenyl)pyrazin-2-amine] | 5 nM | > 10000 nM |

Continued, values first:

| Ki [1] | IC50 [2] | Compound |
| --- | --- | --- |
| 138 nM | 645 nM | Nc1cnc(-c2ccc(C3CCC3)c(OCC(O)Cn3ncccc3=O)c2F)cn1 (racemic) [Example 53, racemic 2-(3-(3-(5-Aminopyrazin-2-yl)-6-cyclobutyl-2-fluorophenoxy)-2-hydroxypropyl)pyridazin-3(2H)-one] |
| 36 nM | 345 nM | Nc1cnc(-c2ccc(C3CCC3)c(OCC(O)CNc3cnccn3)c2F)cn1 (racemic) [Example 57, racemic 1-(3-(5-Aminopyrazin-2-yl)-6-cyclobutyl-2-fluorophenoxy)-3-(pyrazin-2-ylamino)propan-2-ol] |
| 30 nM | 374 nM | Nc1cnc(NCC(O)COc2c(C3CCC3)ccc(-c3cnc(N)cn3)c2F)nc1 (racemic) [Example 58, racemic 1-(3-(5-Aminopyrazin-2-yl)-6-cyclobutyl-2-fluorophenoxy)-3-((5-aminopyrimidin-2-yl)amino)propan-2-ol] |
| 327 nM | 1540 nM | Nc1cnc(-c2ccc(C3CCC3)c(OCC(O)CNc3cc(N)ncn3)c2F)cn1 (racemic) [Example 59, racemic 1-(3-(5-Aminopyrazin-2-yl)-6-cyclobutyl-2-fluorophenoxy)-3-((6-aminopyrimidin-4-yl)amino)propan-2-ol] |
| 1140 nM | 1140 nM | Nc1cnc(-c2ccc(C3CCC3)c(OCC(O)CN3CCOCC3)c2F)cn1 (racemic) [Example 255, 1-(3-(5-aminopyrazin-2-yl)-6-cyclobutyl-2-fluorophenoxy)-3-morpholinopropan-2-ol] |
| 4 nM | 298 nM | Nc1cnc(-c2ccc(C3CCC3)c(OCc3cccc(C(=O)O)c3)c2F)cn1 [Example 4, 3-{[3-(5-Aminopyrazin-2-yl)-6-cyclobutyl-2-fluorophenoxy]methyl}benzoic acid] |
| 11 nM | 263 nM | Nc1cnc(-c2ccc(C3CCC3)c(OCc3ccc(C(=O)O)cc3)c2F)cn1 [Example 5, 4-{[3-(5-Aminopyrazin-2-yl)-6-cyclobutyl-2-fluorophenoxy]methyl}benzoic acid] |
| 250 nM | 1290 nM | Nc1cnc(-c2ccc(C3CCC3)c(OCc3cccnc3)c2F)cn1 [Example 13, 5-[4-Cyclobutyl-2-fluoro-3-(pyridin-3-ylmethoxy)phenyl]pyrazin-2-amine] |
| 122 nM | 2290 nM | Nc1cnc(-c2ccc(C3CCC3)c(OCc3ccncc3)c2F)cn1 [Example 14, 5-[4-Cyclobutyl-2-fluoro-3-(pyridin-4-ylmethoxy)phenyl]pyrazin-2-amine] |
| 193 nM | 1240 nM | N#Cc1ccc(COc2c(C3CCC3)ccc(-c3cnc(N)cn3)c2F)cc1 [Example 15, 4-{[3-(5-Aminopyrazin-2-yl)-6-cyclobutyl-2-fluorophenoxy]methyl}benzonitrile] |
| 98 nM | 467 nM | N#Cc1cccc(COc2c(C3CCC3)ccc(-c3cnc(N)cn3)c2F)c1 [Example 16, 3-{[3-(5-Aminopyrazin-2-yl)-6-cyclobutyl-2-fluorophenoxy]methyl}benzonitrile] |
| 16 nM | 276 nM | NC(=O)c1cccc(COc2c(C3CCC3)ccc(-c3cnc(N)cn3)c2F)c1 [Example 17, 3-{[3-(5-Aminopyrazin-2-yl)-6-cyclobutyl-2-fluorophenoxy]methyl}benzamide] |
| 120 nM | 1170 nM | N#Cc1ccccc1COc1c(C2CCC2)ccc(-c2cnc(N)cn2)c1F [Example 18, 2-{[3-(5-Aminopyrazin-2-yl)-6-cyclobutyl-2-fluorophenoxy]methyl}benzonitrile] |
| 100 nM | 812 nM | NC(=O)c1ccccc1COc1c(C2CCC2)ccc(-c2cnc(N)cn2)c1F [Example 19, 2-{[3-(5-Aminopyrazin-2-yl)-6-cyclobutyl-2-fluorophenoxy]methyl}benzamide] |
| 8 nM | 4130 nM | Nc1cnc(-c2ccc(C3CCC3)c(OCc3cccc(-c4nnn[nH]4)c3)c2F)cn1 [Example 21, 5-(4-Cyclobutyl-2-fluoro-3-{[3-(1H-tetrazol-5-yl)benzyl]oxy}phenyl)pyrazin-2-amine] |
|  | > 1000 nM | Nc1cnc(-c2ccc(C3CCC3)c(Oc3nc4ncccc4s3)c2F)cn1 [Example 330, 5-(4-Cyclobutyl-2-fluoro-3-(thiazolo[4,5-b]pyridin-2-yloxy)phenyl)pyrazin-2-amine] |
